# Measurements as given in BindingDB's records for PubMed 29032032 (Quaid-I-Azam University, 2017).
# Molecular target: Alpha-glucosidase (Saccharomyces cerevisiae)
# Test: Inhibition of Saccharomyces cerevisiae alpha-glucosidase using pNPG as substrate incubated for 30 mins by microplate reader analysis
row,IC50,Compound
1,0.231 µM,COc1cc2c(O)c(Oc3cc(O[C@@H]4O[C@H](CO)[C@@H](O)[C@H](O)[C@H]4O[C@@H]4O[C@H](CO)[C@@H](O)[C@H](O)[C@H]4O)c4ccc(=O)oc4c3)c(=O)oc2cc1O
2,0.086 µM,COc1cc2cc(Oc3ccc4ccc(=O)oc4c3)c(=O)oc2cc1O [Daphnoretin]
3,0.05 µM,"O=c1ccc2ccc(Oc3cc4cc(O)c(O)cc4oc3=O)cc2o1 [6,7-dihydroxy-3,7'-dicoumaryl ether]"

# Molecular target: Maltase-glucoamylase (Homo sapiens, UniProt O43451)
# Test: Inhibition of alpha-glucosidase (unknown origin)
# Maltase-glucoamylase, sequence (O43451 whole entry): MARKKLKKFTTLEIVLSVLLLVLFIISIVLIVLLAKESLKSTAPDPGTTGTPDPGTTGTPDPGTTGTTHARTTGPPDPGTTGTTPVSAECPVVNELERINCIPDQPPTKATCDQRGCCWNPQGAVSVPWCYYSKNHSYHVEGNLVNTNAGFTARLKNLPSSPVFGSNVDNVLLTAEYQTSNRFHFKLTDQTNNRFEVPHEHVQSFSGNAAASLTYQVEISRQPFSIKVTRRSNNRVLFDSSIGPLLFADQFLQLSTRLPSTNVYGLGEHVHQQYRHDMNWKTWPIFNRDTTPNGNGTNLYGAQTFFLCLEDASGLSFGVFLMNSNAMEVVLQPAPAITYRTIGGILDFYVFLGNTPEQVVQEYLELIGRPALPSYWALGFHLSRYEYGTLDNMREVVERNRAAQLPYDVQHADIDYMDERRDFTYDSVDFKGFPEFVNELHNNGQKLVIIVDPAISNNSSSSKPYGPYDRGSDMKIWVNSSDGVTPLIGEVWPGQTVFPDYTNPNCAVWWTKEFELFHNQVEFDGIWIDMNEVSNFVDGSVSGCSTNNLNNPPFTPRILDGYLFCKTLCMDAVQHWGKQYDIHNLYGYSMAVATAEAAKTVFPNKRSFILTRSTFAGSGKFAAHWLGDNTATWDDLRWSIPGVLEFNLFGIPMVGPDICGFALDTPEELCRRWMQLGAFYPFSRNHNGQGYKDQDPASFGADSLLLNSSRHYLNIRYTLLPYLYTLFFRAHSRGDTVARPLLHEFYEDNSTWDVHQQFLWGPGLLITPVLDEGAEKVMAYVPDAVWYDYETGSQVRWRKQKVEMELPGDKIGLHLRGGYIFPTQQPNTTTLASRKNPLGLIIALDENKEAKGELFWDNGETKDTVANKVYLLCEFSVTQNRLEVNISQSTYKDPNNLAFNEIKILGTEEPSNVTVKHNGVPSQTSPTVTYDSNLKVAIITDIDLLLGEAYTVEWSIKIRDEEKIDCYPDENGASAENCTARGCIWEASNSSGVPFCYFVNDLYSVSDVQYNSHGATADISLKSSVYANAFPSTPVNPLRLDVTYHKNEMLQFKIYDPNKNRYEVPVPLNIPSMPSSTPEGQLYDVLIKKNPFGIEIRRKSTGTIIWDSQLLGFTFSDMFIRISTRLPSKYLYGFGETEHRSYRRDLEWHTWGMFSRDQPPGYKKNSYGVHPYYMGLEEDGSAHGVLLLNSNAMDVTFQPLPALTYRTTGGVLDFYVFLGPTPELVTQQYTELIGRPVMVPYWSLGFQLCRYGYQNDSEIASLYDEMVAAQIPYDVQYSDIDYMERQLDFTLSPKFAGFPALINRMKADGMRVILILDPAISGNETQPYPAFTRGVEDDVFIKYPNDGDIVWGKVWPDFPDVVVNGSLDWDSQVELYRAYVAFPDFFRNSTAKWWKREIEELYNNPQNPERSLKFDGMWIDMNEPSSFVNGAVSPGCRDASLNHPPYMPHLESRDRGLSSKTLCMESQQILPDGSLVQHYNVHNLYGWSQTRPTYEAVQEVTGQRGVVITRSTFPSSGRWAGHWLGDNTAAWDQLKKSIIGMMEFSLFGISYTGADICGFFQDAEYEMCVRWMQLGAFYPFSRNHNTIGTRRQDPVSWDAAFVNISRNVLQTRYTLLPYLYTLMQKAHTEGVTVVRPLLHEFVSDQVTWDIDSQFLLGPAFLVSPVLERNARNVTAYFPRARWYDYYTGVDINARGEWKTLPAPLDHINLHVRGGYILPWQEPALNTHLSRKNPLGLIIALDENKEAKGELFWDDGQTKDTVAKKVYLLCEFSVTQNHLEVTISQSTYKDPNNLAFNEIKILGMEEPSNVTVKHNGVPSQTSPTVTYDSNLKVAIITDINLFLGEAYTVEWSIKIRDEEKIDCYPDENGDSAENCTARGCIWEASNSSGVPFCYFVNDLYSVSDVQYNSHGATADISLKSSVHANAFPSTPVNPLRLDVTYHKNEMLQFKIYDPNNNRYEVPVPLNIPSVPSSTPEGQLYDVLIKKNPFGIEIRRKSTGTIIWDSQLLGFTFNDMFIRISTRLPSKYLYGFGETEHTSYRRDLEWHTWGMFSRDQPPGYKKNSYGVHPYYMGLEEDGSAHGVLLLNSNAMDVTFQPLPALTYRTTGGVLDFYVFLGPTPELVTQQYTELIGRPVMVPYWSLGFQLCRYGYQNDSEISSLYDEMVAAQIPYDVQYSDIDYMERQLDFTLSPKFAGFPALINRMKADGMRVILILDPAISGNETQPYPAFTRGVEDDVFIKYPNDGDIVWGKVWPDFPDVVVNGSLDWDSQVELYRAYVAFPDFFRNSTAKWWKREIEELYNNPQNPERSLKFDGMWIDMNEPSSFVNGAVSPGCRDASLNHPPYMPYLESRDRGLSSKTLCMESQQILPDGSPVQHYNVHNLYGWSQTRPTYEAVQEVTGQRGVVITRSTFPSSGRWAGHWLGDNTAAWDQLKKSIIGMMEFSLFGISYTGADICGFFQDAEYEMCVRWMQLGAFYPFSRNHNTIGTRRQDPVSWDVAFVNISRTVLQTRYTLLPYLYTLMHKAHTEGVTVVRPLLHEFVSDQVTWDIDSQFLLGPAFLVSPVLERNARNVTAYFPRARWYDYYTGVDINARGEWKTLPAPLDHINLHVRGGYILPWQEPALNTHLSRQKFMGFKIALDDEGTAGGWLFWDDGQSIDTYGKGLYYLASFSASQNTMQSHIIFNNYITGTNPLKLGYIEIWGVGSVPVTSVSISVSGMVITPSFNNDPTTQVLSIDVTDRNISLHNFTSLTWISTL
row,Compound,IC50
1,COc1cc(C(c2c(O)c3cc(Cl)ccc3oc2=O)c2c(O)c3cc(Cl)ccc3oc2=O)ccc1O,83.6 µM
2,COc1ccc(C(c2c(O)c3cc(Cl)ccc3oc2=O)c2c(O)c3cc(Cl)ccc3oc2=O)cc1O,113 µM
3,O=c1oc2ccc(Cl)cc2c(O)c1C(c1cccc(O)c1)c1c(O)c2cc(Cl)ccc2oc1=O,84.1 µM
4,COc1cc(C(c2c(O)c3cc(C)ccc3oc2=O)c2c(O)c3cc(C)ccc3oc2=O)cc(OC)c1OC,386 µM
5,CCOc1cc(C(c2c(O)c3cc(C)ccc3oc2=O)c2c(O)c3cc(C)ccc3oc2=O)ccc1O,221 µM
6,COc1cc(C(c2c(O)c3cc(Cl)ccc3oc2=O)c2c(O)c3cc(Cl)ccc3oc2=O)cc(OC)c1OC,128 µM
7,O=c1oc2ccc(Cl)cc2c(O)c1C(c1cccc([N+](=O)[O-])c1)c1c(O)c2cc(Cl)ccc2oc1=O,27.1 µM
8,COc1ccc(C(c2c(O)c3cc(Cl)ccc3oc2=O)c2c(O)c3cc(Cl)ccc3oc2=O)cc1OC,91.4 µM
9,COc1ccc(C(c2c(O)c3cc(C)ccc3oc2=O)c2c(O)c3cc(C)ccc3oc2=O)cc1 [acs.jmedchem.1c00409_ST.500],107 µM
10,CCOc1cc(C(c2c(O)c3cc(Cl)ccc3oc2=O)c2c(O)c3cc(Cl)ccc3oc2=O)ccc1O,57.1 µM
11,O=c1oc2ccc(Cl)cc2c(O)c1C(c1ccc(Cl)cc1Cl)c1c(O)c2cc(Cl)ccc2oc1=O,16.5 µM
